Several values for one entry are separate records, joined by “and”; a condition that tells them apart may be missing. Equal entries are not always repeated. Inconclusive results and toxic doses are left out.
Tested on: BDF1 mice, P388 leukemia ip, median survival T/C
Assay: NCI In Vivo Anticancer Drug Screen. Data for tumor model P388 Leukemia (intraperitoneal) in B6D2F1 (BDF1) mice
Conditions: endpoint: median survival time, higher = longer survival
Procedure, shortened: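 Steps: implant the tumour, treat one group with compound and another with vehicle, record survival, then divide treated by control.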

[1] = dose: 25.0 mg/kg/injection, schedule: Q01DX009 (ip), vehicle: saline with Tween-80
[2] = dose: 50.0 mg/kg/injection, schedule: Q01DX009 (ip), vehicle: saline with Tween-80
[3] = dose: 200.0 mg/kg/injection, schedule: Q01DX009 (ip), vehicle: saline with Tween-80
[4] = dose: 100.0 mg/kg/injection, schedule: Q01DX009 (ip), vehicle: saline with Tween-80
[5] = dose: 25.0 mg/kg/injection, schedule: Q01DX009 (ip), vehicle: Klucel (hydroxypropylcellulose) (HPC)
[6] = dose: 12.5 mg/kg/injection, schedule: Q01DX009 (ip), vehicle: water
[7] = dose: 25.0 mg/kg/injection, schedule: Q01DX009 (ip), vehicle: water
[8] = dose: 100.0 mg/kg/injection, schedule: Q01DX009 (ip), vehicle: water
[9] = dose: 200.0 mg/kg/injection, schedule: Q04DX003 (ip), vehicle: water
[10] = dose: 400.0 mg/kg/injection, schedule: Q04DX003 (ip), vehicle: water
[11] = dose: 100.0 mg/kg/injection, schedule: Q04DX003 (ip), vehicle: saline with Tween-80

[Cl][Co][Cl].[NH-]CCC[NH-].[NH-]CCC[NH-]
T/C (dose: 25.0 mg/kg/injection, schedule: Q04DX003 (ip), vehicle: saline): 105 % of control | T/C (dose: 50.0 mg/kg/injection, schedule: Q04DX003 (ip), vehicle: saline): 110 % of control

CCCCCCCCOC(=O)c1ccc(OP(=O)(N(C)C)N(C)C)cc1
T/C (dose: 12.5 mg/kg/injection, schedule: Q01DX009 (ip), vehicle: saline with Tween-80): 99 % of control | T/C [1]: 101 % of control | T/C [2]: 106 % of control and 124 % of control | T/C [3]: 94 % of control

C/C=C1\C(=O)O[C@@]23C=C[C@H]4C(C(=O)OC)=CO[C@@H](O[C@H]12)[C@H]43
T/C (dose: 0.75 mg/kg/injection, schedule: Q01DX009 (ip), vehicle: saline): 100 % of control | T/C (dose: 2.5 mg/kg/injection, schedule: Q01DX009 (ip), vehicle: saline): 115 % of control | T/C (dose: 165.0 micrograms/kg/injection, schedule: Q01DX009 (ip), vehicle: Klucel (hydroxypropylcellulose) (HPC)): 105 % of control | T/C (dose: 620.0 micrograms/kg/injection, schedule: Q01DX009 (ip), vehicle: Klucel (hydroxypropylcellulose) (HPC)): 115 % of control | T/C (dose: 1250.0 micrograms/kg/injection, schedule: Q01DX009 (ip), vehicle: Klucel (hydroxypropylcellulose) (HPC)): 105 % of control

CC(=O)OC1C(CO)OC2C1Oc1nc(=N)c(F)cn12 (stereo unspecified)
T/C (dose: 1.56 mg/kg/injection, schedule: Q01DX009 (ip), vehicle: saline): 176 % of control | T/C (dose: 3.13 mg/kg/injection, schedule: Q01DX009 (ip), vehicle: saline): 92 % of control and 102 % of control

OC1(CSc2ccccc2)CCCCC1
T/C [2]: 111 % of control | T/C [4]: 116 % of control and 119 % of control | T/C [3]: 116 % of control | T/C (dose: 400.0 mg/kg/injection, schedule: Q01DX009 (ip), vehicle: saline with Tween-80): 122 % of control

CC(=O)Nc1ccc([I+]c2ccc([N+](=O)[O-])cc2)cc1
T/C (dose: 12.5 mg/kg/injection, schedule: Q01DX009 (ip), vehicle: Klucel (hydroxypropylcellulose) (HPC)): 99 % of control | T/C [5]: 101 % of control | T/C [1]: 119 % of control | T/C (dose: 75.0 mg/kg/injection, schedule: Q01DX009 (ip), vehicle: saline with Tween-80): 116 % of control | T/C (dose: 100.0 mg/kg/injection, schedule: Q01DX009 (ip), vehicle: Klucel (hydroxypropylcellulose) (HPC)): 118 % of control | T/C [4]: 115 % of control

COC(=O)c1c(Cl)c(Cl)c(Cl)c(Cl)c1C(=O)O
T/C [2]: 110 % of control

O=C1c2ccccc2C(=O)N1c1cc(OCc2ccccc2)cc(OCc2ccccc2)c1
T/C (dose: 0.78 mg/kg/injection, schedule: Q01DX009 (ip), vehicle: water): 99 % of control and 103 % of control | T/C (dose: 1.56 mg/kg/injection, schedule: Q01DX009 (ip), vehicle: water): 96 % of control and 101 % of control | T/C (dose: 3.12 mg/kg/injection, schedule: Q01DX009 (ip), vehicle: water): 105 % of control and 120 % of control | T/C (dose: 6.25 mg/kg/injection, schedule: Q01DX009 (ip), vehicle: water): 96 % of control | T/C [6]: 95 % of control and 99 % of control and 112 % of control | T/C [7]: 99 % of control and 105 % of control | T/C (dose: 50.0 mg/kg/injection, schedule: Q01DX009 (ip), vehicle: water): 89 % of control and 117 % of control | T/C (dose: 50.0 mg/kg/injection, schedule: Q04DX003 (ip), vehicle: water): 94 % of control | T/C [8]: 96 % of control | T/C (dose: 100.0 mg/kg/injection, schedule: Q04DX003 (ip), vehicle: water): 99 % of control | T/C (dose: 200.0 mg/kg/injection, schedule: Q01DX009 (ip), vehicle: water): 88 % of control and 115 % of control | T/C [9]: 90 % of control | T/C (dose: 400.0 mg/kg/injection, schedule: Q01DX009 (ip), vehicle: water): 101 % of control | T/C [10]: 99 % of control

c1ccc(-c2nc3ccccc3nc2-c2ccc(Sc3ccc(-c4nc5ccccc5nc4-c4ccccc4)cc3)cc2)cc1
T/C [4]: 101 % of control | T/C [3]: 93 % of control

CC(=O)C(Cl)C(C)=O.CC(=O)C(Cl)C(C)=O.CO.CO.[Ni]
T/C (dose: 12.0 mg/kg/injection, schedule: Q01DX001 (ip), vehicle: Klucel (hydroxypropylcellulose) (HPC)): 108 % of control | T/C (dose: 25.0 mg/kg/injection, schedule: Q01DX001 (ip), vehicle: Klucel (hydroxypropylcellulose) (HPC)): 95 % of control | T/C (dose: 50.0 mg/kg/injection, schedule: Q01DX001 (ip), vehicle: Klucel (hydroxypropylcellulose) (HPC)): 112 % of control | T/C (dose: 100.0 mg/kg/injection, schedule: Q01DX001 (ip), vehicle: Klucel (hydroxypropylcellulose) (HPC)): 104 % of control | T/C (dose: 400.0 mg/kg/injection, schedule: Q01DX001 (ip), vehicle: Klucel (hydroxypropylcellulose) (HPC)): 118 % of control

Clc1ccc(CN2COc3c(ccc4cccnc34)C2)cc1Cl
T/C (dose: 50.0 mg/kg/injection, schedule: Q04DX003 (ip), vehicle: saline with Tween-80): 104 % of control | T/C [11]: 104 % of control and 118 % of control | T/C (dose: 200.0 mg/kg/injection, schedule: Q04DX003 (ip), vehicle: saline with Tween-80): 109 % of control | T/C (dose: 400.0 mg/kg/injection, schedule: Q04DX003 (ip), vehicle: saline with Tween-80): 120 % of control

COC(=O)CCC1(c2ccccc2)CCCC1=O (stereo unspecified)
T/C [6]: 103 % of control | T/C [7]: 92 % of control | T/C [8]: 94 % of control | T/C [9]: 96 % of control | T/C (dose: 300.0 mg/kg/injection, schedule: Q04DX003 (ip), vehicle: water): 100 % of control | T/C [10]: 91 % of control

CN(c1ccccc1)S(=O)(=O)c1ccccc1
T/C [11]: 95 % of control

CCN(CC)Cc1c(O)ccc2c3c(c(=O)oc12)CCCC3
T/C (dose: 1.0 mg/kg/injection, schedule: Q01DX005 (ip), vehicle: saline): 112 % of control | T/C (dose: 2.0 mg/kg/injection, schedule: Q01DX005 (ip), vehicle: saline): 106 % of control | T/C (dose: 4.0 mg/kg/injection, schedule: Q01DX005 (ip), vehicle: saline): 112 % of control | T/C (dose: 8.0 mg/kg/injection, schedule: Q01DX005 (ip), vehicle: saline): 104 % of control | T/C (dose: 16.0 mg/kg/injection, schedule: Q01DX005 (ip), vehicle: saline): 98 % of control | T/C (dose: 32.0 mg/kg/injection, schedule: Q01DX005 (ip), vehicle: saline): 102 % of control | T/C (dose: 64.0 mg/kg/injection, schedule: Q01DX005 (ip), vehicle: saline): 96 % of control

CCOC(=O)C1CC2(CCC1N)c1ccccc1-c1ccccc12 (stereo unspecified)
T/C [2]: 102 % of control | T/C [4]: 99 % of control | T/C [3]: 108 % of control

CN(C)CCCNC(=O)c1ccc2c(c1O)C(=O)c1ccccc1C2=O
T/C (dose: 50.0 mg/kg/injection, schedule: Q01DX005 (ip), vehicle: saline): 118 % of control

NC(Cc1ccc(N(CCCl)CCCl)cc1)C(=O)O (stereo unspecified)
T/C (dose: 0.5 mg/kg/injection, schedule: Q01DX009 (ip), vehicle: Klucel (hydroxypropylcellulose) (HPC)): 179 % of control | T/C (dose: 1.0 mg/kg/injection, schedule: Q01DX009 (ip), vehicle: Klucel (hydroxypropylcellulose) (HPC)): 222 % of control | T/C (dose: 1.25 mg/kg/injection, schedule: Q01DX010 (ip), vehicle: saline): 181 % of control and 208 % of control | T/C (dose: 2.0 mg/kg/injection, schedule: Q01DX009 (ip), vehicle: Klucel (hydroxypropylcellulose) (HPC)): 239 % of control | T/C (dose: 2.0 mg/kg/injection, schedule: Q01DX010 (ip), vehicle: other): 300 % of control | T/C (dose: 2.5 mg/kg/injection, schedule: Q01DX010 (ip), vehicle: saline): 209 % of control and 216 % of control | T/C (dose: 4.0 mg/kg/injection, schedule: Q01DX009 (ip), vehicle: Klucel (hydroxypropylcellulose) (HPC)): 256 % of control | T/C (dose: 4.0 mg/kg/injection, schedule: Q01DX010 (ip), vehicle: other): 250 % of control | T/C (dose: 5.0 mg/kg/injection, schedule: Q01DX010 (ip), vehicle: saline): 233 % of control and 286 % of control | T/C (dose: 8.0 mg/kg/injection, schedule: Q01DX010 (ip), vehicle: other): 113 % of control | T/C (dose: 10.0 mg/kg/injection, schedule: Q01DX010 (ip), vehicle: saline): 100 % of control | T/C (dose: 16.0 mg/kg/injection, schedule: Q01DX010 (ip), vehicle: other): 90 % of control

S=c1nc[nH]c2c1ncn2CN1CCOCC1
T/C [5]: 110 % of control

c1ccc(CSc2ncnc3nc[nH]c23)cc1
T/C (dose: 12.5 mg/kg/injection, schedule: Q01DX010 (ip), vehicle: saline): 100 % of control | T/C (dose: 25.0 mg/kg/injection, schedule: Q01DX010 (ip), vehicle: saline): 100 % of control | T/C (dose: 50.0 mg/kg/injection, schedule: Q01DX010 (ip), vehicle: saline): 100 % of control | T/C (dose: 100.0 mg/kg/injection, schedule: Q01DX010 (ip), vehicle: saline): 100 % of control

O=C(Nc1ccc(NC(=O)c2ccccc2)c(Sc2ccccc2)c1Sc1ccccc1)c1ccccc1
T/C (dose: 100.0 mg/kg/injection, schedule: Q01DX001 (ip), vehicle: saline with Tween-80): 90 % of control | T/C (dose: 400.0 mg/kg/injection, schedule: Q01DX001 (ip), vehicle: saline with Tween-80): 100 % of control

From PubChem BioAssay AID328 (DTP/NCI, 2004)
